The subject of one data set is ZIKV. Put plainly: Plaque assay, anti-ZIKV activity in Vero cells. The format is cell-based, Zika virus. The following applies: for EC50: read-out: EC50 (anti-ZIKV activity, plaque formation).
The nature of data set [1]: MTT cytotoxicity assay in Vero cells. The format is cell-based, African green monkey. The conditions noted are these: African green monkey, triplicate, >200 = highest soluble concentration not reaching 50% cytotoxicity. The protocol:
(§1) MTT assay was used to detect the toxicity of the compound. Cells were seeded in 96-well plates and cultured overnight. Compounds with different concentrations were added and incubated for 96 h. Then, 20 μl of 5 mg/ml MTT (Sigma-Aldrich, United States) solution was added to each well and kept at 37°C for 4 h. Subsequently, 100 μl of 12% SDS-50% DMF (Sigma-Aldrich, United States) solution was added and incubated overnight at 37°C. After the crystalline formamidine was completely dissolved, the optical density (OD) value was measured using a microplate reader (BioTek, United States) with a wavelength of 570 nm and a reference wavelength of 630 nm.
(§2) The 50% effective concentration (EC50) and 50% cytotoxic concentration (CC50) of the compound were calculated according to the Reed and Muench method, inhibition rate of ZIKV RNA yield- [(1-drug treatment/positive control) × 100]. The data and graphs were processed using GraphPad Prism8 software, expressed as mean ± standard deviation (Mean ± SD), comparison between groups using ANOVA, p < 0.05 was considered statistically significant.
A general note: Formazan colour is commonly taken as a measure of viable cells.

The test system of the next data set is Vero cells. In words: MTT cytotoxicity assay in Vero cells. The format is cell-based, African green monkey. The following applies: 96 h, triplicate, >200 = highest soluble concentration not reaching 50% cytotoxicity. The protocol: as §1, §2
The target in a further data set is T1, ZIKV RdRp (Zika virus, UniProt A0A024B7W1).
T1 construct: we expressed and purified ZIKV RdRp domain; made in house; host or cells: Escherichia coli BL21 (DE3)
T1 sequence (A0A024B7W1 2793-3423): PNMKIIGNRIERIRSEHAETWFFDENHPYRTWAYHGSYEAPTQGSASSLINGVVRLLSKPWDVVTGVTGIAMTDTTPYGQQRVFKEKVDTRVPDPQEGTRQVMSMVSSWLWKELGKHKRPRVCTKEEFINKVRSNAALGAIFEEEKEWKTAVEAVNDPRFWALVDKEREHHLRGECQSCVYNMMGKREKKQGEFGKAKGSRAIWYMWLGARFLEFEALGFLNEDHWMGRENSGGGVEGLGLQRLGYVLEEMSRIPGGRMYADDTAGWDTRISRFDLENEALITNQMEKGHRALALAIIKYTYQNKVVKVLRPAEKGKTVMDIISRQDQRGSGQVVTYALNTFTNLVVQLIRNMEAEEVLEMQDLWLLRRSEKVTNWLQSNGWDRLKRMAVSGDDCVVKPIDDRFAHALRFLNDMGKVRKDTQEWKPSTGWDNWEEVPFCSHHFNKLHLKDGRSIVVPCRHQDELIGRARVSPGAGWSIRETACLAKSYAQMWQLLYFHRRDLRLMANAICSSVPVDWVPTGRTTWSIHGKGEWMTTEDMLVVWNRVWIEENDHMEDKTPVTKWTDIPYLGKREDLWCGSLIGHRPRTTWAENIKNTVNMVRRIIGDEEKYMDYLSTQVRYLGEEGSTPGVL
On the set-up: method as in Sáez-Álvarez et al., 2019. The following applies: positive control drug; ref Sáez-Álvarez et al., 2019; cited from earlier work.

A further data set relates to HCV. The arrangement: method as in Wu et al. (2017). The conditions noted are these: Figure 3; ref Wu et al. (2017); read-out: EC50 (anti-HCV); cited from earlier work.
For data set [2] the following is noted: Figure 3; ref Wu et al. (2017); cited from earlier work.
[3] abbreviates: Zika virus, plaque assay, independently in triplicate.
[4] abbreviates: plaque assay, independently in triplicate.

Read-outs that look alike come from different tables or passages of the source.

By EC50 is commonly meant the concentration giving half of the maximal effect. Consider `CCc1c(C2CCCCC2)nc(SCC(=O)Nc2ccc(OC)cc2)[nH]c1=O` [Compound 4e, 2-[(4-cyclohexyl-5-ethyl-6-oxo-1,6-dihydropyrimidin-2-yl)thio]-N-(4-methoxyphenyl)acetamide], for which the EC50 with ZIKV (setting [3]) is above 50 µM. For the same molecule, the CC50 at 96 h in data set [1] is above 200 µM.
Usually melting point stands for the temperature, or range, at which the solid turns liquid. Regarding `CCc1c(C2CCCCC2)nc(SCC(=O)Nc2cc(F)ccc2F)[nH]c1=O` [Compound 4u, 2-[(4-cyclohexyl-5-ethyl-6-oxo-1,6-dihydropyrimidin-2-yl)thio]-N-(2,5-difluorophenyl)acetamide], the melting point fell in the range of 190 to 192 °C. The EC50 in the data set on ZIKV (setting [3]) was above 50 µM. In data set [1], the CC50 at 96 h is above 200 µM.
Molecule `CCc1c(CC2CCCCC2)nc(SCC(=O)Nc2cc(F)ccc2OC)[nH]c1=O` [Compound 4z, 2-{[4-(cyclohexylmethyl)-5-ethyl-6-oxo-1,6-dihydropyrimidin-2-yl]thio}-N-(5-fluoro-2-methoxyphenyl)acetamide] yielded a melting point of 182 to 183 °C. Besides, in the data set on ZIKV (setting [4]), the “EC50 (anti-ZIKV activity, plaque formation)” value is recorded as “did not show activity” and the EC50 was above 50 µM. For the same molecule, the CC50 with Vero cells was above 200 µM.
In the case of Heparin, on ZIKV RdRp, the “inhibition of ZIKV RdRp activity” value is listed as “significantly inhibited”.
With `NC(=O)c1ncn([C@@H]2O[C@H](CO)[C@@H](O)[C@H]2O)n1` [Ribavirin, reference compound], in the data set with ZIKV, the “SI (selectivity index, CC50/EC50 ratio)” value was above 4.09. Besides, the EC50 with ZIKV (setting [3]) is 48.9 ± 3.42 µM. In addition, the CC50 at 96 h in data set [1] is above 200 µM.
For `CCc1c(C2CCCCC2)nc(SCC(=O)Nc2ccccc2OC)[nH]c1=O` [Compound 4a, 2-[(4-cyclohexyl-5-ethyl-6-oxo-1,6-dihydropyrimidin-2-yl)thio]-N-(2-methoxyphenyl)acetamide], the EC50 in the data set with ZIKV (setting [3]) was above 50 µM. In addition, in data set [1], the CC50 at 96 h was above 200 µM.
Take `CCc1c(C2CCCCC2)nc(SCC(=O)Nc2ccc(F)cc2F)[nH]c1=O` [Compound 4s, 2-[(4-cyclohexyl-5-ethyl-6-oxo-1,6-dihydropyrimidin-2-yl)thio]-N-(2,4-difluorophenyl)acetamide]: the melting point lay in the range of 227 to 229 °C. In addition, the EC50 in the data set on ZIKV (setting [3]) was above 50 µM. Also, the CC50 at 96 h in data set [1] was above 200 µM.
The like results for `CCc1c(C2CCCCC2)nc(SCC(=O)Nc2cccc(OC)c2)[nH]c1=O` [Compound 4c, 2-[(4-cyclohexyl-5-ethyl-6-oxo-1,6-dihydropyrimidin-2-yl)thio]-N-(3-methoxyphenyl)acetamide] were, in that order, 207 to 209 °C, above 50 µM and 109 ± 3.19 µM.
`CCc1c(CC2CCCCC2)nc(SCC(=O)C(O)c2ccc(F)cc2)[nH]c1=O` (stereo not shown) [compound B, reference compound]: the EC50 with HCV was 2.02 µM. For the same molecule, the CC50 in data set [2] is 196 µM.
Consider `CCc1c(C2CCCCC2)nc(SCC(=O)Nc2ccc(F)cc2)[nH]c1=O` [Compound 4k, 2-[(4-cyclohexyl-5-ethyl-6-oxo-1,6-dihydropyrimidin-2-yl)thio]-N-(4-fluorophenyl)acetamide], for which the melting point lay within 273 to 274 °C. Besides, the EC50 with ZIKV (setting [3]) is above 50 µM. The CC50 at 96 h in data set [1] was above 200 µM.
Consider `CCc1c(C2CCCCC2)nc(SCC(=O)Nc2ccccc2F)[nH]c1=O` [Compound 4g, 2-[(4-cyclohexyl-5-ethyl-6-oxo-1,6-dihydropyrimidin-2-yl)thio]-N-(2-fluorophenyl)acetamide], for which the melting point lay in the range of 206 to 208 °C. For the same molecule, the “SI (selectivity index, CC50/EC50 ratio)” value in the data set with ZIKV is given as above 12.27. The EC50 in the data set on ZIKV (setting [3]) was 16.3 ± 1.31 µM. The same molecule gave a CC50 at 96 h in data set [1] above 200 µM.
The like results for `CCc1c(C2CCCCC2)nc(SCC(=O)Nc2cccc(F)c2)[nH]c1=O` [Compound 4i, 2-[(4-cyclohexyl-5-ethyl-6-oxo-1,6-dihydropyrimidin-2-yl)thio]-N-(3-fluorophenyl)acetamide] were, in that order, 184 to 187 °C, above 10.33, 19.4 ± 0.38 µM and above 200 µM.
